Results from ChEMBL document CHEMBL1201862, “PubChem BioAssay data set” (2004).
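Dose response: 5 concentrations. Exposure: 48 h. Format: 96-well plates. Endpoint: linear interpolation; highest concentration if not reached. GI50 = concentration required for 50% inhibition of growth.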 Calls of active or inactive are those of the source. No stated cut-off is given here; in the data, active = GI50 up to about 1.1 µM and inactive = higher.

Experiments:
Assay in all cases: inhibition of tumour cell growth, NCI panel, 48 h
OVCAR-5 = tested on: OVCAR-5
COLO 205 = tested on: COLO 205
A498 = tested on: A498
SNB-19 = tested on: SNB-19
SNB-75 = tested on: SNB-75
SF-268 = tested on: SF-268
HCT-116 = tested on: HCT-116
HCC 2998 = tested on: HCC 2998
NCI-H522 = tested on: NCI-H522
SN12C = tested on: SN12C
HOP-92 = tested on: HOP-92
OVCAR-4 = tested on: OVCAR-4
UACC-257 = tested on: UACC-257
A549 = tested on: A549
CCRF-CEM = tested on: CCRF-CEM
CAKI-1 = tested on: CAKI-1
DU-145 = tested on: DU-145
MCF7 = tested on: MCF7
PC-3 = tested on: PC-3
MDA-MB-435 = tested on: MDA-MB-435

## COCCCNC(=O)C1C(=O)C(=O)N(CCCOC)C1=O (configuration not stated)
OVCAR-5
  GI50: > 100 µM (inactive)
COLO 205
  GI50: > 100 µM (inactive)
A498
  GI50: > 100 µM (inactive)
SNB-19
  GI50: > 100 µM (inactive)
SNB-75
  GI50: > 100 µM (inactive)
SF-268
  GI50: > 100 µM (inactive)
HCT-116
  GI50: > 100 µM (inactive)
HCC 2998
  GI50: > 100 µM (inactive)
NCI-H522
  GI50: > 100 µM (inactive)
SN12C
  GI50: > 100 µM (inactive)
HOP-92
  GI50: > 100 µM (inactive)
OVCAR-4
  GI50: > 100 µM (inactive)
UACC-257
  GI50: > 100 µM (inactive)
A549
  GI50: > 100 µM (inactive)
CCRF-CEM
  GI50: > 100 µM (inactive)
CAKI-1
  GI50: > 100 µM (inactive)

## COc1cc2c(cc1O)C(=O)O[C@@H]1CC=C3CCN(C)[C@H]3[C@H]21
OVCAR-5
  GI50: > 25 µM (inactive)
DU-145
  GI50: > 25 µM (inactive)
A498
  GI50: > 25 µM (inactive)
SNB-19
  GI50: > 25 µM (inactive)
SNB-75
  GI50: > 25 µM (inactive)
SF-268
  GI50: > 25 µM (inactive)
MCF7
  GI50: > 25 µM (inactive)
HCT-116
  GI50: > 25 µM (inactive)
HCC 2998
  GI50: > 25 µM (inactive)
NCI-H522
  GI50: > 25 µM (inactive)
SN12C
  GI50: > 25 µM (inactive)
OVCAR-4
  GI50: > 25 µM (inactive)
PC-3
  GI50: > 25 µM (inactive)
UACC-257
  GI50: > 25 µM (inactive)
A549
  GI50: > 25 µM (inactive)
MDA-MB-435
  GI50: > 25 µM (inactive)
CCRF-CEM
  GI50: > 25 µM (inactive)
CAKI-1
  GI50: > 25 µM (inactive)

## CCCCCCc1cc2cc(C(=O)Nc3ccc(F)cc3)c(=N)oc2cc1O
OVCAR-5
  GI50: 16 µM (inactive)
DU-145
  GI50: 2.71 µM (inactive)
COLO 205
  GI50: 30.8 µM (inactive)
A498
  GI50: 5.05 µM (inactive)
SNB-19
  GI50: 2.98 µM (inactive)
SF-268
  GI50: 0.735 µM (active)
MCF7
  GI50: 3.09 µM (inactive)
HCT-116
  GI50: 2.51 µM (inactive)
HCC 2998
  GI50: 5.37 µM (inactive)
NCI-H522
  GI50: 0.655 µM (active)
OVCAR-4
  GI50: 2.52 µM (inactive)
PC-3
  GI50: 3.37 µM (inactive)
UACC-257
  GI50: 3.37 µM (inactive)
A549
  GI50: 3.21 µM (inactive)
MDA-MB-435
  GI50: 2.92 µM (inactive)
CCRF-CEM
  GI50: 1.35 µM (inactive)
CAKI-1
  GI50: 3.09 µM (inactive)

## CCCCC1c2c([nH]c3ccccc23)C2C(=O)N(c3ccc(OC)cc3)C(=O)C2C1CCC (configuration not stated)
OVCAR-5
  GI50: > 10 µM (inactive)
DU-145
  GI50: 5.12 µM (inactive)
COLO 205
  GI50: 2.59 µM (inactive)
A498
  GI50: 3.4 µM (inactive)
SNB-19
  GI50: 8.59 µM (inactive)
SNB-75
  GI50: 2.55 µM (inactive)
SF-268
  GI50: 4.35 µM (inactive)
HCT-116
  GI50: 3.01 µM (inactive)
HCC 2998
  GI50: 3.47 µM (inactive)
NCI-H522
  GI50: 6.28 µM (inactive)
SN12C
  GI50: 2.18 µM (inactive)
HOP-92
  GI50: 3.03 µM (inactive)
OVCAR-4
  GI50: 4.82 µM (inactive)
PC-3
  GI50: 2.6 µM (inactive)
UACC-257
  GI50: 3.61 µM (inactive)
A549
  GI50: 5.13 µM (inactive)
MDA-MB-435
  GI50: 2.24 µM (inactive)
CCRF-CEM
  GI50: 3.66 µM (inactive)
CAKI-1
  GI50: 1.23 µM (inactive)

## CC(=O)NC(CCCCN(Cc1ccccc1)C(=O)N(C)N=O)C(=O)NCc1ccccc1 (configuration not stated)
OVCAR-5
  GI50: > 100 µM (inactive)
COLO 205
  GI50: 88.3 µM (inactive)
A498
  GI50: > 100 µM (inactive)
SNB-19
  GI50: > 100 µM (inactive)
SNB-75
  GI50: 31.9 µM (inactive)
SF-268
  GI50: 38.9 µM (inactive)
HCT-116
  GI50: 71.3 µM (inactive)
HCC 2998
  GI50: > 100 µM (inactive)
NCI-H522
  GI50: 16.8 µM (inactive)
SN12C
  GI50: > 100 µM (inactive)
HOP-92
  GI50: 61.8 µM (inactive)
OVCAR-4
  GI50: 62.2 µM (inactive)
UACC-257
  GI50: > 100 µM (inactive)
A549
  GI50: 95.9 µM (inactive)
CCRF-CEM
  GI50: 59.6 µM (inactive)
CAKI-1
  GI50: > 100 µM (inactive)

## Cc1cc(C)c(C2CC(O)C(CO)O2)cc1C (configuration not stated)
OVCAR-5
  GI50: > 100 µM (inactive)
COLO 205
  GI50: > 10 µM (inactive)
SNB-19
  GI50: > 100 µM (inactive)
SNB-75
  GI50: > 100 µM (inactive)
SF-268
  GI50: > 100 µM (inactive)
HCT-116
  GI50: > 100 µM (inactive)
HCC 2998
  GI50: > 100 µM (inactive)
NCI-H522
  GI50: > 100 µM (inactive)
SN12C
  GI50: > 100 µM (inactive)
OVCAR-4
  GI50: > 100 µM (inactive)
PC-3
  GI50: > 100 µM (inactive)
UACC-257
  GI50: > 100 µM (inactive)
A549
  GI50: > 100 µM (inactive)
MDA-MB-435
  GI50: > 100 µM (inactive)
CCRF-CEM
  GI50: > 100 µM (inactive)
CAKI-1
  GI50: > 100 µM (inactive)

## CO[C@@]12C[C@@H](CNC(=O)c3cc(Br)c[nH]3)O[C@@H]1NC(=O)N2
OVCAR-5
  GI50: > 100 µM (inactive)
DU-145
  GI50: > 100 µM (inactive)
COLO 205
  GI50: > 100 µM (inactive)
A498
  GI50: > 100 µM (inactive)
SNB-19
  GI50: > 100 µM (inactive)
SNB-75
  GI50: > 100 µM (inactive)
SF-268
  GI50: > 100 µM (inactive)
MCF7
  GI50: > 100 µM (inactive)
HCT-116
  GI50: > 100 µM (inactive)
NCI-H522
  GI50: > 100 µM (inactive)
SN12C
  GI50: > 100 µM (inactive)
OVCAR-4
  GI50: > 100 µM (inactive)
PC-3
  GI50: > 100 µM (inactive)
UACC-257
  GI50: > 100 µM (inactive)
A549
  GI50: > 100 µM (inactive)
MDA-MB-435
  GI50: > 100 µM (inactive)
CCRF-CEM
  GI50: > 100 µM (inactive)
CAKI-1
  GI50: > 100 µM (inactive)

## S=C(Nc1ccccc1)c1ccc(CN2CCCCC2)s1
OVCAR-5
  GI50: 16.2 µM (inactive)
DU-145
  GI50: 60.1 µM (inactive)
COLO 205
  GI50: 18.7 µM (inactive)
A498
  GI50: 18.4 µM (inactive)
SNB-19
  GI50: 20.2 µM (inactive)
SF-268
  GI50: 26.4 µM (inactive)
MCF7
  GI50: 18 µM (inactive)
HCT-116
  GI50: 17.5 µM (inactive)
HCC 2998
  GI50: 21.8 µM (inactive)
NCI-H522
  GI50: 17.8 µM (inactive)
OVCAR-4
  GI50: 35.6 µM (inactive)
PC-3
  GI50: 29.7 µM (inactive)
UACC-257
  GI50: 19.4 µM (inactive)
A549
  GI50: 29.6 µM (inactive)
MDA-MB-435
  GI50: 18.1 µM (inactive)
CCRF-CEM
  GI50: 16.4 µM (inactive)
CAKI-1
  GI50: 20.7 µM (inactive)
